Experimental findings from patent US10501479B2, “Benzenesulfonyl-asymmetric ureas and medical uses thereof” (HELSINN HEALTHCARE SA, priority 2016, dated 2019) are described below.

Each structure is given as a SMILES string.

In assay [1] the target is T1, GHSR-1a (HEK293/GHSR1a cell line) (Homo sapiens, UniProt Q92847).
T1 construct: expressed in transfected cells; host or cells: HEK293/GHSR1a cell line
In words: Ghrelin antagonist potency (IC50) with calcium FLIPR assay, ghrelin 10 nM. It counts as cell-based. As to conditions: ghrelin antagonist potency, read-out: IC50 (Activity). The procedure: Evaluation of Ghrelin Agonist (EC50) and Antagonist Potency (IC50) with Calcium FLIPR Assay:
The intracellular calcium assay was carried out in a 384-well format FLIPR™ (Molecular Device) HEK293/GHSR1a cell line. Cells were seeded 24 hr prior to the experiments at an optimal density per well. Preincubation with selected calcium dye lasted for 30-60 min at room temperature or 37° C. Test compounds, dissolved in DMSO, were added at the appropriate time and incubated for 15 min followed by the addition of ghrelin with FlexStation or FLIPR. Relative fluorescence was monitored by the FLIPR™ Molecular Device. EC50 and IC50 values were estimated from dose-response data using GraphPad Prism software. To check for GHSR-1a agonism, the compound was added at t=20 sec. and the calcium response was followed for 2 minutes. To check for GHSR-1a antagonism, the compound and Ghrelin (10 nM) were added to the cells at t=20 sec. and the calcium response was measured for 2 minutes. The potency of the antagonist was calculated by its ability to reduce the ghrelin response. Dose-response curves were made for relevant antagonists.

Assay [2] deals with T2, recombinant human ghrelin receptor (HEK293/GRLN) (Homo sapiens, UniProt Q92847).
T2 construct: expressed in transfected cells
T2 sequence (Q92847 whole entry): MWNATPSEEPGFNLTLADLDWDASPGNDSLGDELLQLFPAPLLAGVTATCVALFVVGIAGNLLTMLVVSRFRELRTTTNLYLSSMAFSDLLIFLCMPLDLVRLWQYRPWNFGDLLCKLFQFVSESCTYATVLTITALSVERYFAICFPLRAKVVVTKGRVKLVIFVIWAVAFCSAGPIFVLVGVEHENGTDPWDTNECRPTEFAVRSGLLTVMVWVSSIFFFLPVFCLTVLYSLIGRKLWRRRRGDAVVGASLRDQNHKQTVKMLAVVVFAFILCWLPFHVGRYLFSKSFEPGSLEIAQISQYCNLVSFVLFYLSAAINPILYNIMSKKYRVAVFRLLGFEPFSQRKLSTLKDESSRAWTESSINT
The experiment in a line: Ghrelin inverse agonist potency (EC50) with IP-1 (IP-One HTRF) assay. It is filed as cell-based. Particulars: inverse agonist potency, IP-1 assay; read-out: EC50 (Activity). The procedure: Evaluation of Ghrelin Inverse Agonist Potency (EC50) with IP-1 Assay:
HEK293 cells stably expressing recombinant human ghrelin receptor (HEK293/GRLN) were used in the IP-One HTRF assay. One day before the test, cells were seeded at a density of 1.5×10^4/well in a Matrigel® coated 384-well plate with 30 μL of complete Dulbecco's Modified Eagle's Medium and incubated at 37° C. in 5% CO2 for 18-22 hours. On the test day, the medium was removed by centrifugation at 600 rpm for 30 seconds, and 20 μL of stimulation buffer containing 1x tested compound was added with Bravo (Agilent technologies). The plate was then incubated at 37° C. 5% CO2 for 1 hour. After the incubation, 5 μL of IP1-d2 and 5 μL of Tb-Cryp were added to all wells using multidrop Combi(Thermo). After additional incubation at room temperature for 1 hour, the plates were read on Envision with 620 and 665 (Perkin Elmer).
For orientation: Time-resolved FRET reads energy transfer from a long-lived donor to a nearby acceptor.

T1 sequence (Q92847 whole entry): as above

Turning to `Cc1ccc(CS(=O)(=O)c2ccc(NC(=O)N[C@@H](C)c3cccc(Cl)c3Cl)cc2)cc1` [H0964, (S)-1-(1-(2,3-dichlorophenyl)ethyl)-3-(4-((4-methylbenzyl)sulfonyl)phenyl)urea], the IC50 in assay [1] worked out at 4170 nM. Also, the EC50 in assay [2] was found to be 2480 nM.
The like results for `C[C@H](NC(=O)Nc1ccc(S(=O)(=O)Nc2ccc3[nH]ccc3c2)cc1)c1cccc(Cl)c1Cl` [H0991, (S)-4-(3-(1-(2,3-dichlorophenyl)ethyl)ureido)-N-(1H-indol-5-yl)benzenesulfonamide] were, in that order, 146 nM and 66.8 nM.
`C[C@H](NC(=O)Nc1ccc(S(=O)(=O)Nc2ccc3c(c2)CCNC3)cc1)c1ccc(-c2cnccn2)c(Cl)c1Cl` [H1006, (S)-4-(3-(1-(2,3-dichloro-4-(pyrazin-2-yl)phenyl)ethyl)ureido)-N-(1,2,3,4-tetrahydroisoquinolin-6-yl)benzenesulfonamide]: the concentration for half-maximal inhibition (IC50) in assay [1] turned out to be 72 nM. In assay [2], the EC50 was 36.9 nM.
Take `C[C@H](NC(=O)Nc1ccc(S(=O)(=O)Cc2ccc3c(c2)CCNC3)cc1)c1ccccc1` [H1028, (S)-1-(1-phenylethyl)-3-(4-(((1,2,3,4-tetrahydroisoquinolin-6-yl)methyl)sulfonyl)phenyl)urea]: the IC50 in assay [1] turned out to be 414 nM. Besides, the EC50 in assay [2] was 234 nM.
`O=C(NCc1ccccc1)Nc1ccc(S(=O)(=O)Cc2ccc3c(c2)CCNC3)cc1` [H1029, 1-benzyl-3-(4-(((1,2,3,4-tetrahydroisoquinolin-6-yl)methyl)sulfonyl)phenyl)urea]: the IC50 in assay [1] was 332 nM. For the same compound, the EC50 in assay [2] was 188 nM.
The like results for `COc1ccc([C@H](C)NC(=O)Nc2ccc(S(=O)(=O)Nc3ccc4c(c3)CCN(C(C)=O)C4)cc2)c(Cl)c1Cl` [H1034, (S)-N-(2-acetyl-1,2,3,4-tetrahydroisoquinolin-6-yl)-4-(3-(1-(2,3-dichloro-4-methoxyphenyl)ethyl)ureido) benzenesulfonamide] were, in that order, 1260 nM and 1610 nM.
As for `O=C(NCc1cccc(Cl)c1)Nc1ccc(S(=O)(=O)Cc2ccc3c(c2)CCNC3)cc1` [H1038, 1-(3-chlorobenzyl)-3-(4-(((1,2,3,4-tetrahydroisoquinolin-6-yl)methyl)sulfonyl)phenyl)urea], the IC50 in assay [1] came to 376 nM. In addition, the EC50 in assay [2] amounted to 123 nM.
The like results for `O=C(NCc1cccc(Cl)c1Cl)Nc1ccc(S(=O)(=O)Cc2ccc3c(c2)CCNC3)cc1` [H1040, 1-(2,3-dichlorobenzyl)-3-(4-(((1,2,3,4-tetrahydroisoquinolin-6-yl)methyl)sulfonyl)phenyl)urea] were, in that order, 31.8 nM and 164 nM.
Turning to `CC(NC(=O)Nc1ccc(S(=O)(=O)Cc2ccc3c(c2)CCNC3)cc1)c1ccccc1Cl` (centres unmarked) [H1041, 1-(1-(2-chlorophenyl)ethyl)-3-(4-(((1,2,3,4-tetrahydroisoquinolin-6-yl)methyl)sulfonyl)phenyl)urea], in assay [1], the IC50 came to 17.4 nM. Also, the EC50 in assay [2] was found to be 55.5 nM.
Turning to `CC(NC(=O)Nc1ccc(S(=O)(=O)Cc2ccc3c(c2)CCNC3)cc1)c1cccc(Cl)c1` (centres unmarked) [H1042, 1-(1-(3-chlorophenyl)ethyl)-3-(4-(((1,2,3,4-tetrahydroisoquinolin-6-yl)methyl)sulfonyl)phenyl)urea], the IC50 in assay [1] turned out to be 36.6 nM. Moreover, the EC50 in assay [2] stood at 122 nM.
Turning to `O=C(NCc1cccc(Cl)c1Cl)Nc1ccc(S(=O)(=O)Cc2ccc3c(c2)CNCC3)cc1` [H1044, 1-(2,3-dichlorobenzyl)-3-(4-(((1,2,3,4-tetrahydroisoquinolin-7-yl)methyl)sulfonyl)phenyl)urea], the IC50 in assay [1] was 53.1 nM. Moreover, in assay [2], the EC50 is 143 nM.
The like results for `C[C@H](NC(=O)Nc1ccc(S(=O)(=O)Cc2ccc3c(c2)CCN3)cc1)c1cccc(Cl)c1Cl` [H1047, (S)-1-(1-(2,3-dichlorophenyl)ethyl)-3-(4-((indolin-5-ylmethyl)sulfonyl)phenyl)urea] were, in that order, 865 nM and 1160 nM.
As to `C[C@H](NC(=O)Nc1ccc(S(=O)(=O)Nc2ccc3c(c2)CNCC3)cc1)c1cccc(Cl)c1Cl` [H1049, (S)-4-(3-(1-(2,3-dichlorophenyl)ethyl)ureido)-N-(1,2,3,4-tetrahydroisoquinolin-7-yl)benzenesulfonamide], the IC50 in assay [1] is 16.3 nM. For the same compound, the EC50 in assay [2] turned out to be 29.6 nM.
The like results for `C[C@H](NC(=O)Nc1ccc(S(=O)(=O)Nc2ccc(CN)cc2)cc1)c1cccc(Cl)c1Cl` [H1050, (S)-N-(4-(aminomethyl)phenyl)-4-(3-(1-(2,3-dichlorophenyl)ethyl)ureido) benzenesulfonamide] were, in that order, 57.4 nM and 109 nM.
The like results for `C[C@H](NC(=O)Nc1ccc(S(=O)(=O)Cc2ccc(CN)cc2)cc1)c1cccc(Cl)c1Cl` [H1051, (S)-1-(4-((4-(aminomethyl)benzyl)sulfonyl)phenyl)-3-(1-(2,3-dichlorophenyl)ethyl)urea] were, in that order, 53.7 nM and 116 nM.
The like results for `CCOC(=O)N1CCc2cc(CS(=O)(=O)c3ccc(NC(=O)N[C@@H](C)c4cccc(Cl)c4Cl)cc3)ccc2C1` [H1055, ethyl (S)-6-(((4-(3-(1-(2,3-dichlorophenyl)ethyl)ureido)phenyl)sulfonyl)methyl)-3,4-dihydroisoquinoline-2(1H)-carboxylate] were, in that order, 4470 nM and 516 nM.
For the compound `C[C@H](NC(=O)Nc1ccc(S(=O)(=O)Cc2ccc3c(c2)CCN(Cc2ccccc2)C3)cc1)c1cccc(Cl)c1Cl` [H1072, (S)-1-(4-(((2-benzyl-1,2,3,4-tetrahydroisoquinolin-6-yl)methyl)sulfonyl)phenyl)-3-(1-(2,3-dichlorophenyl)ethyl)urea], in assay [1], the IC50 came to 123 nM. Further, the EC50 in assay [2] amounted to 21.9 nM.
For the compound `C[C@H](NC(=O)Nc1ccc(S(=O)(=O)Nc2ccc(C(C)(C)N)cc2)cc1)c1cccc(Cl)c1Cl` [H1074, (S)-N-(4-(2-aminopropan-2-yl)phenyl)-4-(3-(1-(2,3-dichlorophenyl)ethyl)ureido) benzenesulfonamide], in assay [1], the IC50 was found to be 3250 nM. In addition, the concentration giving a half-maximal response (EC50) in assay [2] was 657 nM.
For the compound `C[C@H](NC(=O)Nc1ccc(S(=O)(=O)Cc2cccc(CO)c2)cc1)c1cccc(Cl)c1Cl` [H1088, (S)-1-(1-(2,3-dichlorophenyl)ethyl)-3-(4-((3-(hydroxymethyl)benzyl)sulfonyl)phenyl)urea], the IC50 in assay [1] stood at 7970 nM. Besides, the concentration giving a half-maximal response (EC50) in assay [2] is 367 nM.
In the case of `COCc1ccc(CS(=O)(=O)c2ccc(NC(=O)N[C@@H](C)c3cccc(Cl)c3Cl)cc2)cc1` [H1093, (S)-1-(1-(2,3-dichlorophenyl)ethyl)-3-(4-((4-(methoxymethyl)benzyl)sulfonyl)phenyl)urea], the IC50 in assay [1] was 2380 nM. For the same compound, in assay [2], the EC50 amounted to 327 nM.
The like results for `C[C@H](NC(=O)Nc1ccc(S(=O)(=O)Cc2ccc3c(c2)COCC3)cc1)c1cccc(Cl)c1Cl` [H1097, (S)-1-(1-(2,3-dichlorophenyl)ethyl)-3-(4-((isochroman-7-ylmethyl)sulfonyl)phenyl)urea] were, in that order, 1970 nM and 363 nM.
Regarding `C[C@H](NC(=O)Nc1ccc(S(=O)(=O)Cc2ccc3c(c2)COC3)cc1)c1cccc(Cl)c1Cl` [H1098, (S)-1-(1-(2,3-dichlorophenyl)ethyl)-3-(4-(((1,3-dihydroisobenzofuran-5-yl)methyl)sulfonyl)phenyl)urea], the IC50 in assay [1] amounted to 12100 nM. Further, in assay [2], the EC50 turned out to be 649 nM.

For orientation: IC50 means the point on the concentration scale where inhibition reaches its midpoint. In general, EC50 refers to the concentration needed to bring the measured effect to its halfway point.
